From patent publication US5498522A, “Methods for the use of spermidine/spermine N^1 -acetyltransferase as a prognostic indicator and/or a tumor response marker” (priority 1993, dated 1996)
Entries after “also recorded” stand apart in the source; their conditions may differ.

What was measured:
[1] = test system: SH-1 human melanoma xenografts; assay: antitumor response against SH-1 human melanoma xenografts in mice; format: in vivo; details: SH-1, BENSPM at 80 mg/kg
Experimental: (§1) […] where 1 represents length; w--width; and h--height. Tumor sizes were monitored 2 times/week until the median volume (V=0.4(a^2 ×b) where a is the smaller of the two perpendicular tumor diameters). As an indication of drug toxicity, animal weights were also recorded at the time of tumor volume measurement. Statistical analyses were performed on mouse tumor size and weight parameters by using the Mann-Whitney test.
(§2) Tumor growth suppression was measured by plotting the mean tumor volume versus the number of days post-inoculation with polyamine analog (growth curve analyses). Suppression is determined by comparison with the growth of untreated tumors (%T/C). More specifically,: %T/C is (treated tumor volume minus pretreatment volume) divided by (control tumor volume minus pretreatment volume)×100. Typically this is measured either when the control tumor volume reaches 1000 mm^3, or at the last day of treatment.
(§3) Tumor regression is measured as a percentage representing the average percentage of decrease in tumor volume from the largest pretreatment volume value.
(§4) Repression of regrowth is represented as regrowth delay, determined as the number of days following cessation of treatment when median group tumor volume exceeds 200 mm^3 (an arbitrary indication of regrowth which was determined statistically).
(§5) For example, human melanoma cell lines including MALME-3, SH-1, PANUT-3 and LOX were evaluated for the level of SSAT induction and potency of antitumor response following BENSPM treatment (80 mg/kg 3×/day×6 days) using the methodology previously described in this embodiment. […] The baseline of SSAT activity in the control mice (2 examined of 7 mice) ranged from 50 to 90 pmol/min/mg. […] Note that following BENSPM treatment (as discussed above in the context of Tables 4 and 5), suppression of tumor growth of PANUT-3, unlike suppression of MALME-3 growth, lasted for only about 12 days. Further, the levels of SSAT in PANUT-3 at two weeks post-treatment, approached the levels in the control and correlated with the loss of antitumor activity.

[2] = test system: A549 lung adenocarcinoma xenografts; assay: antitumor response against A549 lung adenocarcinoma xenografts in mice; format: in vivo, human
Experimental: as §1, §2, §3, §4
Cells from malignant solid human tumor tissue types, other than melanoma, have also been evaluated for their responsiveness to polyamine analog treatment including clonal cell lines A121 (human ovarian adenocarcinoma),A549 (lung adenocarcinoma), and HT29 colon adenocarcinoma). These cell lines were evaluated for the level of SSAT induction and potency of antitumor response following BENSPM treatment (80 mg/kg 3×/day×6 days) in-vivo using the methodology previously described in this embodiment. Also, dose of BENSPM was compared (80 mg/kg versus 40 mg/kg). The baseline of SSAT activity in the control mice (2 of 7 mice) ranged from 40 to 90 pmol/min/mg. Tumor cells from the human xenografts A121, A549, and HT29 were removed from two mice of each treated group of seven mice containing the respective xenograft at 16 hours following the final BENSPM injection to evaluate the level of induction of SSAT activity. […] The response to the polyamine analog was heterotypic. […] As discussed previously, it is not known whether the heterotypic antitumor response may be due to either the individual properties of the clonal line or the particular solid tumor type.

human tumor xenografts = assay: antitumor efficacy in-vivo (general statement); details: compared to other bis-ethyl spermine analogs
[3] = test system: spermidine/spermine N^1 -acetyltransferase (SSAT); assay: SSAT induction in host tissue of treated mice; format: in vivo, mouse; details: spleen (PANUT-3 mice), 80 mg/kg
[4] = test system: S-adenosylmethionine decarboxylase (SAMDC); assay: SAMDC activity in human melanoma xenografts in-vivo
[5] = test system: human melanoma xenografts; assay: antitumor response, human melanoma xenografts, dose comparison and general; format: in vivo; details: MALME-3, SH-1, PANUT-3, LOX
Experimental: The in-vivo antitumor activities of BESPM, BEHSPM, and BENSPM, were compared against various human xenografts in nude athymic mice. Cultured human tumor cells were first passaged several times in female HSD nude athymic mice. Fragments of resultant tumor were implanted into mice via subcutaneous trocar implantation. Mice of different treatment groups were treated with one or more of the three bis-ethyl spermine analogs BESPM, BEHSPM, and BENSPM. Anti-proliferative activity was monitored by antitumor responses including tumor growth suppression, tumor regression, or repression of regrowth.
as §5

MALME-3 melanoma cells = assay: N^1 -acetylspermidine in MALME-3 cell cultures; format: cell-based, human; details: MALME-3, 10 μm BESPM, 48 hours
Experimental: To illustrate this embodiment, LOX and MALME-3 cell cultures were treated for 48 hours with 10 μm BESPM. The cells from each culture were harvested and assayed for SSAT activity. Media samples were prepared by treating the samples with 50% trichloroacetic acid to give a final concentration of 10% and then centrifuged at 15,000×g for 10 minutes. The supernatant was then filtered through a 0.22-μm filter, extracted with several volumes of ether, lyophilized, and resuspended in 10% trichloroacetic acid. N^1 -acetylspermidine levels of cells and media samples were then measured by use of high-pressure liquid chromatography. […] Similarly, N^1 -acetylspermidine levels from MALME-3 control cells, media from control cell cultures, and treated MALME-3 cells contained minimal levels of N^1 -acetylspermidine.

LOX human melanoma cells = assay: growth of LOX melanoma cells in-vitro (FIG. 5); format: cell-based; details: 10 μM BESPM, 48 hours
Experimental: (§6) As mentioned previously, cells from malignant solid tumor respond to polyamine analog therapy heterotypically. SSAT induction and antitumor response may vary not only among the solid tumor tissue type, but also with the clonal line of tumor of a particular solid tissue type. However, a correlation between the level of induction of SSAT and the potency of antitumor response has been observed in tumors of a particular solid tissue type. For example, seven human melanoma cell lines were assayed in-vitro for their response, as determined by cell growth and level of SSAT induction, to 10 μM BESPM at 48 hours post-treatment. As summarized in FIG. 5, growth among the cell lines decreases as SSAT induction increases.

cell growth = details: in-vitro; cited from earlier work
[6] = test system: Ebey human melanoma cells; assay: growth of Ebey melanoma cells in-vitro (FIG. 5); format: cell-based; details: 10 μM BESPM, 48 hours
Experimental: as §6

[7] = test system: SH-1 human melanoma cells; assay: growth of SH-1 melanoma cells in-vitro (FIG. 5); format: cell-based; details: SH-1, 10 μM BESPM, 48 hours
Experimental: as §6

[8] = A549, BENSPM 80 mg/kg 3x/d × 6d
[9] = A549 xenograft, 80 mg/kg 3×/day×6 days

## CCNCCCNCCCNCCCNCC [BENSPM, N^1,N^11 -bis(ethyl)norspermine]
[1]
  % T/C at 1 g: < 0%
  Tumor Regression: Present
[1]; dt 15 days
  Regrowth Delay: 2.1 × dt
[1]; for duration of experiment
  No Regrowth: 1/5
[2]; [8]
  % T/C at 1 g: 13%
  Tumor Regression: no measurable tumor regression and None
[2]; A549, BENSPM 80 mg/kg 3x/d × 6d, dt 10 days
  Regrowth Delay: 8.5 × dt
[2]; A549, BENSPM 80 mg/kg 3x/d × 6d, for duration of experiment
  No Regrowth: 2/5
[2]; [9]
  growth suppression after cessation of treatment: 85 days
  tumor regrowth: minimal tumor regrowth
Human tumor xenografts
  antitumor efficacy / activity, relative: most potent antitumor efficacy; also recorded: most potent antitumor activity
[3]; 2 wks post-treatment
  SSAT activity: 48/40
[3]; 16 hrs post-treatment
  SSAT activity: 163/322
[4]; MALME-3 study
  SAMDC levels: ODC and SAMDC levels were not suppressed
[4]; PANUT-3 study
  SAMDC levels: ODC and SAMDC levels were not suppressed
[5]
  antitumor response at 40 mg/kg versus 80 mg/kg: very similar to the response at 80 mg/kg

## CCNCCCNCCCCNCCCNCC [BESPM, N^1,N^12-bis(ethyl)spermine]
MALME-3 melanoma cells
  N^1 -acetylspermidine Intracellular: 0.1 nmol/culture
LOX human melanoma cells
  growth inhibition (FIG. 5): least growth inhibition
Cell growth
  concentration inhibiting cell growth: 1 to 10 µM
[6]
  growth inhibition (FIG. 5): greatest growth inhibition
[7]
  growth inhibition (FIG. 5): least growth inhibition
